# Entries after “also recorded” stand apart in the source; their conditions may differ.
# Tests used:
# rats [1] = experiment: Thermal withdrawal latency, intraplantar LPS inflammatory pain model and non-inflamed controls; assay type: in vivo, rat; conditions: for effect on AEPU mediated antihyperalgesia: LPS treated rats, AEPU 50 mg/kg topical; for thermal withdrawal latency in the absence of inflammation: control rats, i.pl. saline; for LPS elicited thermal hyperalgesia (thermal withdrawal latency): rats, i.pl. LPS 10 μg
# rats [2] = experiment: Thermal hindpaw withdrawal latency (Hargreaves), non-inflammatory model; assay type: in vivo, rat
# Experimental: (§1) Behavioral nociceptive testing was conducted by assessing thermal hindpaw withdrawal latencies (TWL) using a commercial Hargreaves apparatus (IITC, Woodland Hills, Calif.), or by determining mechanical hind paw withdrawal thresholds (MWT) using a digital paw pressure Randall-Selitto instrument (IITC, Woodland Hills, Calif.). On the day of the experiment, rats were transferred to a quiet room, acclimated for 1 hour and their baseline responses were measured. In pilot experiments, the intensity of the thermal stimulus was set to produce a baseline TWL of 7-8 sec. Baseline mechanical hind paw withdrawal thresholds varied between 60-70 grams of force. Immediately following baseline determination all compounds were administered subcutaneously in the following vehicles; Inhibitors of sEH were formulated in trans free oleate and administered in a total volume of 300 µL Rolipram, picrotoxin, flucanozole, miconazole and finasteride were all dissolved in a sterile saline solution containing 25% DMSO and administered in a volume of 50 μl. Caffeine was dissolved in saline and administered in a total volume of 300 μl. All agents were administered subcutaneously into the back. In groups treated with the sEHi, cytochrome P450 inhibitors, finasteride or picrotoxin animals were pretreated one hour before other compounds. In groups treated with the PDEi, immediately following PDEi administration animals were placed in acrylic chambers on a glass platform maintained at a temperature of 30±1° C. for TWL measurement. Three to five TWL measurements were taken at 1-2 min interstimulus intervals following treatments and these were averaged for each animal at each time point. For MWT measurement, 45 minutes following treatment, the probe of the Randall-Selitto paw pressure meter was applied to the dorsal surface of the hind paw. The instrument was set to the maximum holding (MH) mode and the readout that elicited a hind paw withdrawal was designated as the threshold. Three MWT measurements were taken at 1-2 min interstimulus intervals and these were averaged for each animal. Data are presented as percent change from each animal's baseline response. Open field activity was quantified using a Plexiglas chamber (40×40×30 cm, length×width×height) imprinted with a 10×10 cm grid. Animals were placed in the middle of the chamber and observed for two minutes. The number of crossings were recorded when both hind paws crossed into a neighboring cell.
# A non-inflammatory model was used to test the hypothesis that elevated intracellular cAMP and EETs will act synergistically in producing antinociception. Intracellular cAMP levels were increased by administering increasing doses of two CNS permeable PDEi; rolipram, a PDE-4 selective inhibitor and caffeine, a non selective PDEi. […]
# StARD1 mRNA [3] = experiment: StARD1 expression after rolipram and TPAU, qRT-PCR; assay type: in vivo, rat; conditions: rats
# Excerpt: Briefly, RNA from whole spinal cord, brain and adrenal gland samples were extracted using a purelink Micro to Midi total RNA purification kit (Invitrogen, CA). The RNA samples were quantified by spectrophotometry and converted to cDNA using a high capacity cDNA reverse transcription kit from Applied Biosystems (CA, USA). Taq-man probe for StARD1 (Rn00580695_ml) was used according to manufacturer's instructions to quantify relative gene expression (Applied Biosystems CA, USA). Experiments were performed in triplicate with glyceraldehyde 3-phosphate dehydrogenase gene serving as the endogenous control. Mean fold expression values from corresponding vehicle treated animal tissues were used as calibrators.
# These findings encouraged us to investigate the expression of StARD1 message as a marker of steroidogenic activity. […] Adrenal StARD1 from the same animals was also monitored as a marker of peripheral steroidogenesis.
# C57BL/6 mice = experiment: Pentobarbital induced loss of righting reflex; assay type: in vivo, mouse; conditions: pentobarbital 40 mg/kg i.p., TPAU 3 mg/kg, rolipram 1 mg/kg s.c.
# Excerpt: Loss of righting was quantified as previously described, with a slightly lower dose of pentobarbital (Pinna, et al. (2004) Proc Natl Acad Sci USA, 101(16), 6222-6225).
# In rats, sEHi-PDEi combination led to significant increases in nociceptive thresholds. We asked if co-administration of sEHi-PDEi combination would also enhance GABA-related activity in mice. Loss of righting reflex in pentobarbital administered mice following sEHi and PDEi administration was quantified.
# rats [4] = experiment: Open field / motor activity; assay type: in vivo, rat; conditions: rolipram 0.1 and TPAU 10 mg/kg
# rats [5] = experiment: Mechanical hind paw withdrawal threshold (Randall-Selitto), non-inflammatory model; assay type: in vivo, rat
# Experimental: as §1, with “For MWT measurement, 45 minutes following treatment, the probe of the Randall-Selitto paw pressure meter was applied to the dorsal surface of the hind paw.” left out, “Three MWT measurements were taken at 1-2 min interstimulus intervals and these were averaged for each animal. Data are presented as percent change from each animal's baseline response.” left out, “Animals were placed in the middle of the chamber and observed for two minutes.” left out, “cell. […]” for “cell.”
# [6] = system: C57BL/6 mice; sEH null mice; experiment: Picrotoxin induced seizures; assay type: in vivo, mouse
# allopregnanolone = experiment: Radioimmunoassay of allopregnanolone in spinal cord and brain; assay type: in vivo, rat; conditions: rats, increasing rolipram doses, TPAU 10 mg/kg s.c.
# Experimental: Radioimmunoassays were conducted as previously described (Janis G, C. et al., Alcoholism: Clinical and Experimental Research 22:2055-2061 (1998)). Briefly, spinal cord and brain samples were weighed and suspended in 2.5 ml of 0.3N NaOH, homogenized with a sonic dismembrator, and extracted three times with 3 ml aliquots of 10% ethyl acetate in heptane (vol/vol). Extraction recovery was monitored by the addition of 2000 cpm of [^3H]allopregnanolone. The extracts were purified using solid phase silica columns (Burdick and Jackson, Muskegon, Mich.) and subsequently dried. Samples were reconstituted and assayed in duplicate by the addition of [^3H]allopregnanolone and anti-allopregnanolone antibody (1:2000; Custom synthesis, Reproductive Endocrine Unit, Massachusetts General Hospital). Total binding was determined in the absence of unlabeled allopregnanolone and nonspecific binding was determined in the absence of antibody. The antibody binding reaction is allowed to equilibrate for 2 hours and cold dextran-coated charcoal was used to separate bound from unbound steroid. Bound radioactivity was determined by liquid scintillation spectroscopy. Steroid levels in the samples were extrapolated from a concurrently run standard curve and corrected for their respective extraction efficiencies. The sensitivity of the assay was 0.63 ng/ml. The intraassay coefficient of variation was <5%.
# [7] = system: circulating testosterone and progesterone; experiment: Circulating steroid hormone levels by RIA; assay type: in vivo, rat; conditions: rats
# [8] = system: plasma oxylipins (EETs, DHETs, PGE2); experiment: Plasma oxylipin analysis in LPS treated rats; assay type: in vivo, rat
# Excerpt: Plasma was collected by cardiac puncture under deep anesthesia. Rats were anesthetized by isoflurane overdose and decapitated. Whole brains were immediately excised and flash frozen. […] Dorsal roots were excluded.
# StARD1 mRNA [9] = experiment: StARD1 mRNA 30 min after intraspinal 8-Br cAMP, EETs, AEPU in non-inflamed rats; assay type: in vivo, rat; conditions: 8-Br cAMP 100 μg, EETs 5 μg, AEPU 1 μg
# Experimental: To investigate the cooperation between cAMP and EETs in the spinal cord, a membrane permeable cAMP analogue, 8-Br cAMP (100 μg), was administered into the spinal cord by lumbar puncture (between L4-L5) and rapid (30 min.) expression of StARD1 mRNA in the spinal cord and the brain was quantified by qRT-PCR. In these experiments animals were maintained under deep anesthesia.
# [10] = Brain, blood and plasma inhibitor levels, LC-ESI-MS/MS; conditions: 10 mg/kg TPAU, 40 mg/kg AUDA; unpublished results
# rats [11] = experiment: Streptozocin induced diabetic neuropathy, Von Frey mechanical allodynia; assay type: in vivo, rat; conditions: Von Frey's test
# Experimental: The study was approved by UC Davis Animal Care and Use Committee. Male Sprague-Dawley rats weighing 250-350 g were obtained from Charles River Inc. Two models of inflammatory pain and one model of diabetic neuropathic pain were used to test the effects of sEHI. The main inflammatory pain model used involved intraplantar LPS (10 μg/animal) administration as described previously (Inceoglu B et al., Life Sci 79:2311-2319 (2006)). Briefly, following baseline thermal withdrawal latency and mechanical withdrawal threshold determination LPS (in saline) was administered into one hind paw and nociceptive thresholds were monitored over time. The other inflammatory pain model involved intraplantar carrageenan (1% in saline, 50 μl) administration and was only used when sEHI was administered into the spinal cord. Intrathecal catheters were implanted according to Yaksh and Rudy (Yaksh T L and Rudy T A, Physiol Behav 17(6):1031-1036 (1976)). Following baseline nociceptive response measurements carrageenan was administered into one hind paw and responses were monitored over time and after intraspinal sEHI administration. […] In experiments in which EETs, sEHI and cAMP analogue was administered intraspinally animals were maintained under deep anesthesia and therefore nociceptive thresholds were not determined.
# [12] = one hour, increasing rolipram doses, TPAU 10 mg/kg
molecule,measurement,setting,value
CC(=O)S[C@@H]1CC2=CC(=O)CC[C@]2(C)[C@H]2CC[C@@]3(C)[C@@H](CC[C@@]34CCC(=O)O4)[C@H]12 [spironolactone],effect on AEPU mediated antihyperalgesia,rats [1],did not block
COc1ccc(C2CNC(=O)C2)cc1OC1CCCC1 (centres unmarked) [Rolipram],ED50,"rats [2]; Rattus norvegicus, sc",0.53 mg/kg
same,"efficacy, increase over baseline in thermal withdrawal latency","rats [2]; rats, s.c.",202%
same,decrease in adrenal gland StARD1 expression,StARD1 mRNA [3],30%
same,brain StARD1 expression,StARD1 mRNA [3]; [12],no change
same,spinal cord StARD1 expression,StARD1 mRNA [3]; [12],biphasic increase
same,duration of pentobarbital induced loss of righting response,C57BL/6 mice,no effect; also recorded: did not change
same,open field activity / motor function,rats [4],depression of activity
same,ED50,"rats [5]; Rattus norvegicus, sc, rats, rolipram dose, AUDA 40 mg/kg",0.3 mg/kg
same,time to onset of picrotoxin induced seizures,"[6]; C57BL/6 mice, picrotoxin 10 mg/kg s.c., TPAU 3 mg/kg, rolipram 1 mg/kg s.c.",no effect
same,onset of picrotoxin induced seizures in sEH null mice,"[6]; sEH null mice, increasing doses",delayed in a dose dependent manner
same,brain allopregnanolone levels,allopregnanolone,significantly increased allopregnanolone levels at one dose point only
same,spinal cord allopregnanolone levels,allopregnanolone,did not change
OC(Cn1cncn1)(Cn1cncn1)c1ccc(F)cc1F [Flucanozole],effect on the dose-effect curve of rolipram (antinociception),"rats [2]; rats, s.c.",antagonized
CC#C[C@]1(O)CC[C@H]2[C@@H]3CCC4=CC(=O)CCC4=C3[C@@H](c3ccc(N(C)C)cc3)C[C@@]21C [mifepristone],effect on AEPU mediated antihyperalgesia,rats [1],did not block
CCC1(c2ccc(N)cc2)CCC(=O)NC1=O (centres unmarked) [aminoglutethimide],effect on AEPU mediated antihyperalgesia,rats [1],blocked
same,thermal withdrawal latency in the absence of inflammation,rats [1],failed to alter
same,LPS elicited thermal hyperalgesia (thermal withdrawal latency),rats [1],failed to alter
same,circulating / plasma progesterone level,[7],significantly reduced
same,plasma EET/DHET ratio,[8]; LPS and AEPU-treated rats,did not change
same,antagonism of sEHI reduction of PGE2,[8]; LPS+AEPU+AGL treated rats,did not antagonize
Clc1ccc(COC(Cn2ccnc2)c2ccc(Cl)cc2Cl)c(Cl)c1 (centres unmarked) [miconazole],effect on the dose-effect curve of rolipram (antinociception),"rats [2]; rats, s.c.",failed to change
Nc1ncnc2c1nc(Br)n2[C@@H]1O[C@@H]2COP(=O)(O)O[C@H]2[C@H]1O [8-Br cAMP],brain StARD1 expression,StARD1 mRNA [9],Neither brain nor spinal StARD1 expression changed
same,spinal StARD1 expression,StARD1 mRNA [9],without effect
CC/C(=C(\c1ccccc1)c1ccc(OCCN(C)C)cc1)c1ccccc1 [tamoxifen],effect on AEPU mediated antihyperalgesia,rats [1],did not block
Cn1c(=O)c2c(ncn2C)n(C)c1=O [caffeine],open field activity / motor function,rats [4],did not cause depression of motor activity
picrotoxin,"effect on rolipram+AUDA antinociception, thermal withdrawal",rats [2]; picrotoxin 0.25 mg/kg,antagonized
same,"baseline nociceptive responses, given alone",rats [2]; picrotoxin 0.25 mg/kg s.c.,did not change baseline responses
same,effect on rolipram+AUDA increase in mechanical withdrawal threshold,rats [5]; picrotoxin 0.25 mg/kg,antagonized
"O=C(O)CCCCCCCCCCCNC(=O)NC12CC3CC(CC(C3)C1)C2 [AUDA, 12-(3-Adamantan-1-yl-ureido)dodecanoic acid]","thermal withdrawal latency, sEHi alone","rats [2]; rats, s.c., over 4 hours, vs baseline",no significant differences
same,plasma inhibitor levels relative to rat sEH IC50,[10],200 fold
same,mechanical allodynia elicited by streptozocin induced diabetic neuropathy,rats [11],reduced
same,effect on caffeine's increase of mechanical withdrawal threshold,"rats [5]; rats, AUDA 40 mg/kg",enhanced
CC(C)(C)NC(=O)[C@H]1CC[C@H]2[C@@H]3CC[C@H]4NC(=O)C=C[C@]4(C)[C@H]3CC[C@]12C [finasteride],effect on AEPU mediated antihyperalgesia,rats [1],blocked
same,thermal withdrawal latency in the absence of inflammation,rats [1],failed to alter
same,LPS elicited thermal hyperalgesia (thermal withdrawal latency),rats [1],failed to alter
same,effect on the dose-effect curve of rolipram (antinociception),"rats [2]; rats, s.c.",antagonized
CC1(C)NC(=O)N(c2ccc([N+](=O)[O-])c(C(F)(F)F)c2)C1=O [nilutamide],effect on AEPU mediated antihyperalgesia,rats [1],did not block
